According to patent US6268496A, “Certain imidazoquinoxalines: a new class of GABA brain receptor ligands” (Neurogen Corporation, priority 1999, dated 2001):

Assays:
[1] = test system: benzodiazepine binding site; conditions: cited from earlier work
[2] = molecular target: GABAa receptor; assay: GABAa receptor activity: displacement of 3H-RO15-1788 (3H-Flumazenil) binding in rat cortical tissue homogenate; conditions: 0.5 nM 3H-RO15-1788 [3H-Flumazenil], 30 min at 4° C., pH 7.4
Description: Rat cortical tissue is dissected and homogenized in 25 volumes (w/v) of 0.05 M Tris HCl buffer (pH 7.4 at 4° C.). The tissue homogenate is centrifuged in the cold (4°) at 20,000×g for 20'. The supernatant is decanted and the pellet is rehomogenized in the same volume of buffer and again centrifuged at 20,000×g. The supernatant is decanted and the pellet is frozen at -20° C. overnight. The pellet is then thawed and rehomogenized in 25 volume (original wt/vol) of buffer and the procedure is carried out twice. The pellet is finally resuspended in 50 volumes (w/vol of 0.05 M Tris HCl buffer (pH 7.4 at […]).
Incubations are carried for 30 min at 4° C. then are rapidly filtered through GFB filters to separate free and bound ligand. Filters are washed twice with fresh 0.05 M Tris HCl buffer (pH 7.4 at 4° C.) and counted in a liquid scintillation counter. […] diazepam is added to some tubes to determine nonspecific binding. Data are collected in triplicate determinations, averaged and % inhibition of total specific binding is calculated. Total Specific Binding=Total-Nonspecific. In some cases, the amounts of unlabeled drugs is varied and total displacement curves of binding are carried out. Data are converted to a form for the calculation of IC50 and Hill Coefficient (nH).

SMILES | IC50 [2] [nM] | also measured
CN1CCc2cc3c(cc2[C@H]1[C@@H]1OC(=O)c2c1ccc1c2OCO1)OCO3 [(+) bicuculline] |  | block of the enhancement of benzodiazepine binding by GABA agonists [1]: blocked
CN1CCc2cc3c(cc2[C@@H]1[C@H]1OC(=O)c2c1ccc1c2OCO1)OCO3 [(-) bicuculline] |  | block of the enhancement of benzodiazepine binding by GABA agonists [1]: much less active
O=c1c2c[nH]c3ccccc3n-2c(=O)n1-c1ccccc1 [Compound 1, 2-Phenyl-imidazo[1,5-a]quinoxaline-1,3(2H,5H)-dione] | 9.5 | 
CCOc1ccc(-n2c(=O)c3c[nH]c4ccccc4n-3c2=O)cc1 [Compound 3, 2-(4-ethoxyphenyl)-imidazo[1,5,a]quinoxaline-1,3(2H,5H)-dione] | 15 | 
COc1ccc(-n2c(=O)c3c[nH]c4ccccc4n-3c2=O)cc1 [Compound 4, 2-(4-Methoxyphenyl)-imidazo[1,5,a]quinoxaline-1,3(2H,5H)-dione] | 9.5 | 
Cc1ccc(-n2c(=O)c3c[nH]c4ccccc4n-3c2=O)cc1 [Compound 5, 2-(4-Methylphenyl)-imidazo[1,5,a]quinoxaline-1,3(2H,5H)-dione] | 16 | 
COc1ccc(-n2c(=O)c3c[nH]c4ccc(Br)cc4n-3c2=O)cc1 [Compound 33, 8-Bromo-2-(4-methoxyphenyl)-imidazo[1,5,a]quinoxaline-1,3(2H,5H)-dione] | 2.4 | 
NCCCC(=O)O [GABA, γ-Aminobutyric acid] |  | effect on binding of benzodiazepines ([1]; low affinity (1 mM) GABA binding site): enhance the binding of benzodiazepines
